# Test system: PD-1-deficient mouse serum
# Assay: Competition with recombinant cardiac troponin I in western blotting of normal mouse heart extract
# Format: binding
# Details: recombinant cardiac troponin I added at 1, 10 and 100 μg/ml
# Method: PD-1-deficient mouse serum (mouse #101, #104 and #117) was used for western blotting of normal mouse heart extract. For the competition assay, recombinant cardiac troponin I was added to immune blot solution at 1, 10, and 100 μg/ml. The 30-kDa antigen recognized by PD-1-deficient mouse serum was depleted by immunoprecipitation with antibodies to anti-myocardial troponin I and was recoverable from the pellet fraction (FIG. 2 (b)).
# Thus, the band was confirmed to consist solely of cardiac troponin I.
substance,measurement,value
recombinant cardiac troponin I: mouse cardiac troponin I protein obtained by PreScission protease cleavage of a GST-fusion recombinant protein,intensity of the 30-kDa band recognized by PD-1-deficient mouse serum,weakened in a dose-dependent manner

# From US7407767B2, “Method of screening remedy for heart disease and medicinal composition for treating heart disease” (Ono Pharmaceutical Co., Ltd., priority 2003, dated 2008)
